These cell lines were tested with CC1(C)CCC(CN2CCN(c3ccc(C(=O)NS(=O)(=O)c4ccc(NCC5CCOCC5)c([N+](=O)[O-])c4)c(Oc4cnc5[nH]ccc5c4)c3)CC2)=C(c2ccc(Cl)cc2)C1 [Venetoclax] + C[C@@H](Oc1cc(-c2cnn(C3CCNCC3)c2)cnc1N)c1c(Cl)ccc(F)c1Cl [Crizotinib] (partner 1 µM) (assay: relative viability (nuclei count vs DMSO), 5 days (fraction); higher = more cells survive). Conditions: first compound 0.01 µM.
How it was run: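 Cells from lung cancer lines were seeded into 1536-well plates and, one day later, dosed by pin tool. Treatments were either a single drug or a fixed dose of an anchor drug with five library-drug doses (not always all listed) in √10 steps. After 5 days, nuclei were stained in a one-step fixation (final 0.05% Triton X-100, 1% formaldehyde, 1 ug/ml Hoechst) and counted on 4× images, and relative viability is the treated-to-vehicle nuclei ratio, as the median of duplicate plates.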
For NCI-H647, the relative viability was 0.803. With NCI-H23 the relative viability was 0.488. Work on EMC-BAC-2 yielded a relative viability of 0.687. In the case of NCI-H2126, the relative viability is reported as 0.986. Cell Line Calu-6 has a relative viability of 0.79. HCC-44 showed a relative viability of 0.748. Cell Line NCI-H1734 has a relative viability of 0.733. Work on NCI-H650 yielded a relative viability of 0.725. In the case of LK-2, the relative viability is reported as 0.192. Work on NCI-H2228 yielded a relative viability of 0.432. Cell Line SK-MES-1 has a relative viability of 1.01. In the case of HARA, the relative viability is reported as 0.946. With COR-L23 the relative viability was 0.631. Work on COR-L 105 yielded a relative viability of 0.717. In the case of LC-2-ad, the relative viability is reported as 0.46. ChaGo-K-1 was tested, and the relative viability was 1.1. NCI-H2170 showed a relative viability of 1.07. Work on IA-LM yielded a relative viability of 0.727. A549 gave a relative viability of 0.707. NCI-H1299 showed a relative viability of 0.974. With NCI-H1703 the relative viability was 0.655. With NCI-H441 the relative viability was 0.845. In the case of NCI-H1650, the relative viability is reported as 0.831. LCLC-103H was tested, and the relative viability was 1.05.

Same assay, conditions: first compound 0.03162 µM
With PC-14 the relative viability was 0.972. In the case of NCI-H1666, the relative viability is reported as 0.985. In the case of EBC-1, the relative viability is reported as 0.18. NCI-H1755 gave a relative viability of 0.885. For NCI-H2023, the relative viability was 0.737. For EPLC-272H, the relative viability was 0.682. Cell Line LCLC-97TM1 has a relative viability of 0.306. Work on PC-3 [JPC-3] yielded a relative viability of 0.987. LOU-NH91 gave a relative viability of 0.751. NCI-H647 showed a relative viability of 1.35. With NCI-H23 the relative viability was 0.491. Cell Line EMC-BAC-2 has a relative viability of 0.774. Cell Line NCI-H2126 has a relative viability of 1.02. Calu-6 showed a relative viability of 0.798. Work on HCC-44 yielded a relative viability of 0.852. Work on NCI-H1734 yielded a relative viability of 0.833. With NCI-H650 the relative viability was 0.699. LK-2 gave a relative viability of 0.214. For NCI-H2228, the relative viability was 0.519. In the case of SK-MES-1, the relative viability is reported as 1.08. HARA gave a relative viability of 1.07. COR-L23 showed a relative viability of 0.696. With COR-L 105 the relative viability was 0.638. Cell Line LC-2-ad has a relative viability of 0.465. ChaGo-K-1 showed a relative viability of 1.27. For NCI-H2170, the relative viability was 1.23. With IA-LM the relative viability was 0.709. A549 was tested, and the relative viability was 0.668. With NCI-H1299 the relative viability was 0.998. Work on NCI-H1703 yielded a relative viability of 0.635. For NCI-H441, the relative viability was 0.976. Work on NCI-H1650 yielded a relative viability of 0.986. Cell Line LCLC-103H has a relative viability of 1.2.

Same assay, conditions: first compound 0.1 µM
With PC-14 the relative viability was 1.06. Work on NCI-H1666 yielded a relative viability of 1.02. Work on EBC-1 yielded a relative viability of 0.207. NCI-H1755 gave a relative viability of 0.872. NCI-H2023 gave a relative viability of 0.721. Cell Line EPLC-272H has a relative viability of 0.872. LCLC-97TM1 gave a relative viability of 0.342. For PC-3 [JPC-3], the relative viability was 1.04. LOU-NH91 was tested, and the relative viability was 0.756. In the case of NCI-H23, the relative viability is reported as 0.353. Cell Line EMC-BAC-2 has a relative viability of 0.779. NCI-H2126 showed a relative viability of 1.04. For Calu-6, the relative viability was 0.794. In the case of HCC-44, the relative viability is reported as 0.83. NCI-H1734 showed a relative viability of 0.724. Work on LK-2 yielded a relative viability of 0.262. NCI-H2228 gave a relative viability of 0.538. Cell Line SK-MES-1 has a relative viability of 1.05. HARA showed a relative viability of 0.603. Cell Line COR-L23 has a relative viability of 0.601. For COR-L 105, the relative viability was 0.669. With LC-2-ad the relative viability was 0.439. NCI-H2170 gave a relative viability of 1.12. In the case of IA-LM, the relative viability is reported as 0.584. With A549 the relative viability was 0.886. Cell Line NCI-H1299 has a relative viability of 0.937. In the case of NCI-H1703, the relative viability is reported as 0.634. For NCI-H441, the relative viability was 0.745. In the case of LCLC-103H, the relative viability is reported as 1.04.

Same assay, conditions: first compound 0.3162 µM
In the case of PC-14, the relative viability is reported as 0.864. Work on NCI-H1666 yielded a relative viability of 1. Work on EBC-1 yielded a relative viability of 0.211. For NCI-H1755, the relative viability was 0.863. NCI-H2023 gave a relative viability of 0.552. With EPLC-272H the relative viability was 1.11. For LCLC-97TM1, the relative viability was 0.301. PC-3 [JPC-3] gave a relative viability of 0.965. In the case of LOU-NH91, the relative viability is reported as 0.729. With NCI-H647 the relative viability was 0.974. Cell Line NCI-H23 has a relative viability of 0.507. Cell Line EMC-BAC-2 has a relative viability of 0.775. NCI-H2126 showed a relative viability of 0.971. Work on Calu-6 yielded a relative viability of 0.776. HCC-44 showed a relative viability of 0.778. Cell Line NCI-H1734 has a relative viability of 0.73. With NCI-H650 the relative viability was 0.701. Cell Line LK-2 has a relative viability of 0.248. In the case of NCI-H2228, the relative viability is reported as 0.427. SK-MES-1 gave a relative viability of 1.01. Work on HARA yielded a relative viability of 1.04. For COR-L23, the relative viability was 0.778. COR-L 105 was tested, and the relative viability was 0.738. For LC-2-ad, the relative viability was 0.466. ChaGo-K-1 was tested, and the relative viability was 1.16. In the case of NCI-H2170, the relative viability is reported as 1.15. Cell Line IA-LM has a relative viability of 0.848. Cell Line A549 has a relative viability of 0.649. NCI-H1299 gave a relative viability of 0.912. NCI-H1703 gave a relative viability of 1.15. NCI-H441 showed a relative viability of 0.679. In the case of NCI-H1650, the relative viability is reported as 0.74. Cell Line LCLC-103H has a relative viability of 0.985.

Same assay, conditions: first compound 1 µM
With PC-14 the relative viability was 0.801. NCI-H1666 gave a relative viability of 0.916. With EBC-1 the relative viability was 0.146. NCI-H1755 was tested, and the relative viability was 0.779. Work on NCI-H2023 yielded a relative viability of 0.53. For EPLC-272H, the relative viability was 0.897. LCLC-97TM1 showed a relative viability of 0.312. With PC-3 [JPC-3] the relative viability was 0.969. LOU-NH91 gave a relative viability of 0.697. NCI-H647 gave a relative viability of 0.722. NCI-H23 was tested, and the relative viability was 0.394. In the case of EMC-BAC-2, the relative viability is reported as 0.71. For NCI-H2126, the relative viability was 0.969. Calu-6 was tested, and the relative viability was 0.72. Cell Line HCC-44 has a relative viability of 0.762. NCI-H1734 showed a relative viability of 0.614. With NCI-H650 the relative viability was 0.641. Cell Line LK-2 has a relative viability of 0.253. In the case of NCI-H2228, the relative viability is reported as 0.544. Work on SK-MES-1 yielded a relative viability of 0.843. HARA gave a relative viability of 1.08. COR-L23 showed a relative viability of 0.543. In the case of COR-L 105, the relative viability is reported as 0.698. Cell Line LC-2-ad has a relative viability of 0.51. In the case of ChaGo-K-1, the relative viability is reported as 1.08. With NCI-H2170 the relative viability was 1.13. In the case of IA-LM, the relative viability is reported as 0.708. Cell Line A549 has a relative viability of 0.61. NCI-H1299 was tested, and the relative viability was 0.907. NCI-H1703 showed a relative viability of 0.605. NCI-H441 showed a relative viability of 0.71. NCI-H1650 was tested, and the relative viability was 0.842. LCLC-103H was tested, and the relative viability was 1.05.

— the supplement of paper PMC10307832
